# In ChEMBL document CHEMBL1141153, “A molecular target for suppression of the evolution of antibiotic resistance: inhibition of the Escherichia coli RecA protein by N(6)-(1-naphthyl)-ADP” (J Med Chem, 2005):
# Target: T1, Protein RecA (Escherichia coli K-12) (UniProt P0A7G6)
# T1 sequence (whole entry): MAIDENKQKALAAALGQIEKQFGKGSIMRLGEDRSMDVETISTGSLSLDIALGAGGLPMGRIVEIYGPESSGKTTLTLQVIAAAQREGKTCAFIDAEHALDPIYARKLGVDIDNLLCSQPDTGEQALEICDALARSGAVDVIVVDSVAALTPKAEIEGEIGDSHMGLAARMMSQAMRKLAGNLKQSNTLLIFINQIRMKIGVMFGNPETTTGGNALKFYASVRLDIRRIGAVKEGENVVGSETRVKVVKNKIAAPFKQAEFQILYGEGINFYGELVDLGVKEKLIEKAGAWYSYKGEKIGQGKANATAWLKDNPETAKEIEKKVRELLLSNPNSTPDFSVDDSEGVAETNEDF
# Assay: In vitro apparent inhibition constant against Escherichia coli RecA protein
structure (smiles),measurement,value
O=P(O)(O)OP(=O)(O)OC[C@H]1O[C@@H](n2cnc3c(Nc4cccc5ccccc45)ncnc32)[C@H](O)[C@@H]1O,Kic,46 µM
